Laboratory results published in US4820821A, “Novel pyridazinone-imines and their physiologically tolerated addition salts with acids, their preparation and therapeutic agents containing these compounds” (BASF Aktiengesellschaft, priority 1981, dated 1989).
Structures can show the parent of a compound that is named as a salt. Where two headings read alike, the source gives them in different places.

Legend:
[1] = test system: reserpine-induced hypothermia; experiment: Antidepressive action: reserpine antagonism, inhibition of reserpine-induced hypothermia of the mouse; assay type: in vivo, male Swiss mice; conditions: for R.A. (relative activity), reserpine antagonism: amezinium = 1.00, oral; for ED 50% (dose which inhibits the reserpine-induced hypothermia of the mouse by 50%) / ED50: dose based on the base; for ED50: Mus musculus, read-out: ED 50% (dose which inhibits the reserpine-induced hypothermia of the mouse by 50%)
Method: Antidepressants effect dose-dependent inhibition of this hypotherma. The test substances are administered orally 60 minutes before the administration of reserpine.
The dose which effects 50% inhibition of the reserpine-induced hypothermia is determined, as the ED 50%, from the linear regression between log dose (mg/kg) and relative reduction in hypothermia (Δ%).

[2] = test system: reserpine-induced hypothermia / blood pressure; experiment: Quotient ED 50% antidepressive action / ED 20% hypertensive action; assay type: in vivo, mouse / rat; conditions: for Q Increase: Table 2, route of hypertensive test not given; for antidepressive and hypertensive action (in words): in vivo; for factor by which the hypertensive dose (ED 20%) is smaller than the antidepressive effective dose (ED 50%): compounds of Table 2;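 for Q Increase: larger quotient means more selective hypertensive action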
Excerpt: This is evident from the fact that the quotient defined above differs wtih respect to the comparative compounds. […] This arises, inter alia, from the fact that the hypertensive ED 20 constitutes the denominator of the quotient. It is possible that the unforeseeable selective direction of action is attributable to the special substitution,in accordance with the invention, at the 4-imino group.

[3] = test system: blood pressure; experiment: Effect on the blood pressure: hypertensive action, pithed rat; assay type: in vivo, male Sprague-Dawley rats; conditions: for R.A. (relative activity), hypertensive action: amezinium = 1.00; for ED 20% hypertensive action (dose which increases the blood pressure of the pithed rat by 20%) / ED20: dose based on the base; for ED20: Rattus norvegicus, read-out: ED 20% hypertensive action (dose which increases the blood pressure of the pithed rat by 20%)
Method: The measurement of the blood pressure in the carotid artery was carried out by means of Statham transducers. The substance was administered in the jugular vein (as an aqueous solution, 1 ml/kg) or intraperitoneally (as a tragacanth suspension, 2 ml/kg). The ED 20% is determined as the dose which increases the blood pressure by 20%.

[4] = Table 1, oral administration 60 min before reserpine
[5] = ip, Table 1, i.p. administration
[6] = iv, Table 1, i.v. administration

Row | Compound | R.A. (relative activity), reserpine antagonism ([1]; Table 1) | R.A. (relative activity), reserpine antagonism ([1]; Table 2) | Q Increase [2] | Q (quotient ED 50% antidepressive action/ED 20% hypertensive action) ([2]; hypertensive test i.p.) | Q (quotient ED 50% antidepressive action/ED 20% hypertensive action) ([2]; hypertensive test i.v.) | R.A. (relative activity), hypertensive action ([3]; Table 1, i.p. administration) | R.A. (relative activity), hypertensive action ([3]; Table 1, i.v. administration) | R.A. (relative activity), hypertensive action ([3]; Table 2) | ED50 [1, 4] [mg/kg] | ED20 [3, 5] [mg/kg] | ED20 [3, 6] [mg/kg] | ED20 ([3]; Table 2, route not given) [mg/kg] | ED50 ([1]; Table 2, oral administration) [mg/kg] | further results
1 | Nc1cc[n+](-c2ccccc2)nc1.[O-][Cl+3]([O-])([O-])[O-] [1-phenyl-4-amino-pyridazinium perchlorate, reference compound] | 1.83 | 1.83 | 22.22 | 1.60 | 22.22 | 1.48 | 2.78 | 2.78 |  |  |  |  |  | ED 50% (dose which inhibits the reserpine-induced hypothermia of the mouse by 50%) [1, 4]: 0.40 mg/kg; ED 50% (dose which inhibits the reserpine-induced hypothermia of the mouse by 50%) ([1]; Table 2, oral administration): 0.40 mg/kg; Q (quotient ED 50% antidepressive action/ED 20% hypertensive action) ([2]; hypertensive test i.p., listed as Example 1 of German Laid-Open Application DOS No. 2,245,248): 1.6; Q (quotient ED 50% antidepressive action/ED 20% hypertensive action) ([2]; hypertensive test i.v., listed as Example 1 of German Laid-Open Application DOS No. 2,245,248): 22.2; antidepressive and hypertensive action (in words) [2]: have an antidepressive and hypertensive action; ED 20% hypertensive action (dose which increases the blood pressure of the pithed rat by 20%) ([3]; Table 1, i.p. administration): 0.25 mg/kg; ED 20% hypertensive action (dose which increases the blood pressure of the pithed rat by 20%) ([3]; Table 1, i.v. administration): 0.018 mg/kg; ED 20% hypertensive action (dose which increases the blood pressure of the pithed rat by 20%) ([3]; Table 2, route not given): 0.018 mg/kg
2 | COc1cc(N)cn[n+]1-c1ccccc1 [Amezinium, 1-phenyl-4-amino-6-methoxypyridazinium methosulfate, reference compound] | 1.00 | 1.00 | 14.66 | 1.98 | 14.66 | 1.00 | 1.00 | 1.00 | 0.733 | 0.37 | 0.05 | 0.05 |  | factor by which the hypertensive dose (ED 20%) is smaller than the antidepressive effective dose (ED 50%) [2]: 15; Q (quotient ED 50% antidepressive action/ED 20% hypertensive action) ([2]; hypertensive test i.v., listed as amezinium): 14.7; antidepressive and hypertensive action (in words) [2]: have an antidepressive and hypertensive action
3 | CC(=O)N=c1ccn(-c2ccccc2)nc1 [Example 1, 4-acetylimino-1,4-dihydro-1-phenylpyridazine hydrochloride] | 1.09 |  |  |  | 2.09 |  | 0.16 |  | 0.67 |  | 0.32 |  |  | 
4 | CCC(=O)N=c1ccn(-c2ccccc2)nc1 [Example 3, 1,4-dihydro-1-phenyl-4-(propionylimino)-pyridazine hydrochloride] | 2.22 |  |  |  | 1.65 |  | 0.25 |  | 0.33 |  | 0.2 |  |  | 
5 | CC(C)C(=O)N=c1ccn(-c2ccccc2)nc1 [Example 5, 1,4-dihydro-4-isobutyrylimino-1-phenylpyridazine hydrochloride] | 1.83 |  |  |  | 1.82 |  | 0.23 |  | 0.4 |  | 0.215 |  |  | 
6 | CCCCCCCC(=O)N=c1ccn(-c2ccccc2)nc1 [Example 8, 1,4-dihydro-4-octanoylimino-1-phenylpyridazine hydrochloride] |  | 0.14 | 95.09 |  |  |  |  | 0.91 |  |  |  | 0.055 | 5.23 | 
7 | O=C(Cc1ccccc1)N=c1ccn(-c2ccccc2)nc1 [Example 9, 1,4-dihydro-1-phenyl-4-[(phenylacetyl)-imino]-pyridazine hydrochloride] |  | 0.18 | 63.17 |  |  |  |  | 0.79 |  |  |  | 0.063 | 3.98 | 
8 | O=C(N=c1ccn(-c2ccccc2)nc1)C1CC1 [Example 10, 4-(cyclopropylcarbonyl)-imino-1,4-dihydro-1-phenylpyridazine hydrochloride] | 0.52 |  |  |  | 3.04 |  | 0.11 |  | 1.41 |  | 0.464 |  |  | 
9 | O=C(N=c1ccn(-c2ccccc2)nc1)C1CCC1 [Example 11, 4-(cyclobutylcarbonyl)-imino-1,4-dihydro-1-phenylpyridazine hydrochloride] |  | 0.12 | 79.09 |  |  |  |  | 0.65 |  |  |  | 0.077 | 6.09 | 
10 | C=C(C)C(=O)N=c1ccn(-c2ccccc2)nc1 [Example 12, 1,4-dihydro-4-methacryloylimino-1-phenylpyridazine] |  | 0.98 | 34.09 |  |  |  |  | 2.27 |  |  |  | 0.022 | 0.75 | 
11 | O=C(N=c1ccn(-c2ccccc2)nc1)c1ccc(F)cc1 [Example 14, 1,4-dihydro-4-(4-fluorobenzoyl)-imino-1-phenylpyridazine hydrochloride] |  | 0.73 | 23.81 |  |  |  |  | 1.19 |  |  |  | 0.042 | 1 | factor by which the hypertensive dose (ED 20%) is smaller than the antidepressive effective dose (ED 50%) [2]: 24
12 | O=C(N=c1ccn(-c2ccccc2)nc1)c1cc(Cl)cc(Cl)c1 [Example 15, 4-(3,5-dichlorobenzoyl)-imino-1,4-dihydro-1-phenylpyridazine] | 0.27 |  |  | < 0.27 |  | < 0.04 |  |  | 2.7 | > 10 |  |  |  | 
13 | O=C(N=c1ccn(-c2ccccc2)nc1)c1ccccc1 [Example 16, 4-benzoylimino-1,4-dihydro-1-phenylpyridazine] |  | 0.55 | 28.91 |  |  |  |  | 1.09 |  |  |  | 0.046 | 1.33 | 
14 | O=C(N=c1ccn(-c2ccccc2)nc1)c1ccccc1Cl [Example 17] |  | 0.27 | 60.00 |  |  |  |  | 1.09 |  |  |  | 0.046 | 2.76 | 
15 | O=C(N=c1ccn(-c2ccccc2)nc1)c1ccc(Cl)cc1 [Example 19] | 0.54 |  |  | < 0.14 |  | < 0.04 |  |  | 1.35 | > 10 |  |  |  | 
16 | O=C(N=c1ccn(-c2ccccc2)nc1)c1ccc(Cl)cc1Cl [Example 20] | 0.67 |  |  | < 0.11 |  | < 0.04 |  |  | 1.1 | > 10 |  |  |  | 
17 | O=C(N=c1ccn(-c2ccccc2)nc1)c1ccc(Cl)c(Cl)c1 [Example 22] | 0.24 |  |  | 0.67 |  | 0.08 |  |  | 3.1 | 4.64 |  |  |  | 
18 | Cc1cccc(C(=O)N=c2ccn(-c3ccccc3)nc2)c1 [Example 23] | 0.74 |  |  | 0.98 |  | 0.37 |  |  | 0.98 | 1 |  |  |  | 
19 | O=C(N=c1ccn(-c2ccccc2)nc1)c1cccc(C(F)(F)F)c1 [Example 26] | 0.22 |  |  | 0.70 |  | 0.08 |  |  | 3.26 | 4.64 |  |  |  | 
20 | CC1(C(=O)N=c2ccn(-c3ccccc3)nc2)CCCCC1 [Example 28] | 1.26 |  |  |  | 5.80 |  | 0.50 |  | 0.58 |  | 0.1 |  |  | 
21 | CCOC(=O)N=c1ccn(-c2ccccc2)nc1 [Example 29, 1,4-dihydro-4-(ethoxycarbonyl)-imino-1-phenylpyridazine hydrochloride] | 0.85 |  |  |  | 4.00 |  | 0.23 |  | 0.86 |  | 0.215 |  |  | 
22 | COC(=O)[C@H]1[C@H]2C[C@@H]3c4[nH]c5cc(OC)ccc5c4CCN3C[C@H]2C[C@@H](OC(=O)c2cc(OC)c(OC)c(OC)c2)[C@@H]1OC [Reserpine, reference compound] |  |  |  |  |  |  |  |  |  |  |  |  |  | reduction of body temperature ([1]; 2.15 mg/kg s.c., 2 hours after administration, ambient 20° to 22° C., average): 3 °C
